These are literature values, as cited in patent US7837990B2, “In vivo expanded NKT cells and methods of use thereof” (The Rockefeller University, priority 2005, dated 2010).

Data set [1] relates to NKT cells. Conditions: patients with advanced cancer or healthy volunteers.
Data set [2] concerns tumor. Conditions: mouse models.

As for `CCCCCCCCCCCCCCCCCCCCCCCCCC(=O)N[C@@H](CO[C@H]1O[C@H](CO)[C@H](O)[C@H](O)[C@H]1O)[C@H](O)[C@H](O)CCCCCCCCCCCCCC` [KRN-7000, α-galactosyl ceramide], the “NKT activation in vivo” value in data set [1] is recorded as “transient NKT activation in some individuals”. Besides, the anti-tumor effect result in data set [2] is listed as “tumor regression in several mouse models”.
